Earlier results, collected in patent US6989139B2, “Matrix metalloproteinase inhibitors” (Bristol-Myers Squibb Pharma Company, priority 2000, dated 2006).

How the values were obtained:
MMP's = details: literature statement
[1] = tested on: MMP-2, MMP-9 vs MMP-1, MMP-3; details: Lovejoy et al 1999

**Q.** With “2-[(2-{[(N-{[4-({[7-(N-hydroxycarbamoyl)(3S,6R,7S)-4-aza-6-(2-methylpropyl)-11-oxa-5-oxobicyclo[10.2.2)hexadeca-1(15),12(16),13-trien-3-yl]-carbonylamino}methyl)phenyl]methyl}carbamoyl)methyl](carboxymeth yl)amino}ethyl){2-[bis(carboxymethyl)amino]ethyl}amino]acetic Acid [Example 8]” as the compound, how does the MMP inhibitory activity (MMP's) read?
**A.** potent inhibition

**Q.** With “2-[2-({5-[N-(5-(N-hydroxycarbamoyl)(5R)-5-{3-[4-(3,4-dimethoxyphenoxy)phenyl]-3-methyl-2-oxopyrrolidinyl}pentyl)carbamoyl](2-pyridyl)}amino)(1Z)-2-azavinyl]benzenesulfonic Acid [Example 15]” as the compound, how does the MMP inhibitory activity (MMP's) read?
**A.** good activity

**Q.** With CC(C)C[C@H]1C(=O)N[C@H](C(=O)NCc2ccc(CNC(=O)C(CS(=O)(=O)O)NC(=O)CN3CCN(CC(=O)O)CCN(CC(=O)O)CCN(CC(=O)O)CC3)cc2)Cc2ccc(cc2)OCCC[C@@H]1C(=O)NO (stereo partly drawn) [Example 6, 2-[7-({N-[1-(N-{[4-({[7-(N-hydroxycarbamoyl)(3S,6R,7S)-4-aza-6-(2-methylpropyl)-11-oxa-5-oxobicyclo[10.2.2]hexadeca-1(15),12(16),13-trien-3-yl]-carbonylamino}methyl)phenyl]methyl}carbamoyl)-2-sulfoethyl]carbamoyl}methyl)-1,4,7,10-tetraaza-4,10-bis(carboxymethyl)cyclododecyl]acetic Acid] as the compound, how does the MMP inhibitory activity (MMP's) read?
**A.** nanomolar activity

**Q.** For O=C(NO)C1(CS(=O)(=O)c2ccc(Oc3ccc(Cl)cc3)cc2)CCOCC1 [Example 13], which “selectivity for MMP-2 and MMP-9 over MMP-1” value [1] is on record?
**A.** selectivity for MMP-2 and MMP-9 over MMP-1
